Key:
STOML1 = biological target: T1, STOML1 (Mus musculus, UniProt Q8CI66); assay: BiFC assay of STOML1 self-association; assay type: cell-based
T1 construct: expressed in transfected cells; host or cells: HEK293 (general statement on the BiFC assay)
Description: FIG. 8: Effects of STOML3 modulating molecules on other Stomatin-domain proteins. (a) BiFC signal development observed when cells were transfected with Stomatin-VC/-VN, STOML1-VC/-VN, STOML2-VC/-VN, STOML3-VC/-VN or Podocin-VC/-VN expression constructs respectively. […] (b) OB-1 was tested at two different concentrations (2 μm and 20 μm) using the BiFC assay where wild type STOML3 was used as both bait and prey.
In mammals STOML3 belongs to a family of five structurally conserved membrane proteins, including stomatin, STOML1, STOML2, and podocin^10,12-16, all of which self-associate via their stomatin-domain (FIG. 8a)^10. Self-association of stomatin-domain proteins can be monitored in HEK293 cells using Bimolecular Fluorescence Complementation (BiFC) whereby N- and C-terminal halves of the YFP molecule are tagged to the prey and bait protein STOML3^2,17 (FIG. 1a). Irreversible association of the YFP fragments produces fluorescence that increases linearly over time (FIG. 1b).

ASIC3 = assay: pH-gated ASIC3 currents and stomatin modulation in CHO cells; assay type: cell-based
Description: To test the effect of compounds on stomatin modulation of ASIC currents CHO cells were transfected with vectors encoding Stomatin and ASIC3, in a ratio of 4:1 using lipofectamine, as per manufacturer's instructions. Cells were incubated with 20 μM OB-1 for 3 hours in extracellular buffer (see above), and OB-1 was maintained in the media during electrophysiological experiments. ASIC3 channels were gated by applying solutions of pH6 and pH4, and both the transient and sustained peak current density was measured.

[1] = system: cutaneous sensory afferents of the saphenous nerve; assay: Ex vivo skin-nerve preparation after local injection into the paw; assay type: in vivo, mouse; conditions: recordings 24 h after treatment

T1 sequence (Q8CI66 whole entry): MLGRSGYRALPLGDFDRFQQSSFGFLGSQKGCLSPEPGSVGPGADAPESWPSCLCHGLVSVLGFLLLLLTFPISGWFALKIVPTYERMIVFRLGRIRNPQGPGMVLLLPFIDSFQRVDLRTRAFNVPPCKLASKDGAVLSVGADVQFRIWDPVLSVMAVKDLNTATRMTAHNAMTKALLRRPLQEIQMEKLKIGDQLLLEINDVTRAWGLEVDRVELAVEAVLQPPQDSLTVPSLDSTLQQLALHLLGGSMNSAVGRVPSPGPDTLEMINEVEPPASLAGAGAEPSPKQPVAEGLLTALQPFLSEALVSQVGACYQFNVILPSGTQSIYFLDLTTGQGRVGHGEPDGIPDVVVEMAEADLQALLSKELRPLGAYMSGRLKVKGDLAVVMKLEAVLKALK

- self-association of STOML1 (BiFC) (STOML1): effective inhibitor
Compound: CCOC(=O)c1c(-c2ccccc2)oc2ccc(Oc3c([N+](=O)[O-])ncn3C)cc12 [OB-1, Ethyl 5-((1-methyl-4-nitro-1H-imidazol-5-yl)oxy)-2-phenylbenzofuran-3-carboxylate]
- ASIC3-mediated pH-evoked currents (transient and sustained) (ASIC3; CHO cells expressing ASIC3, 20 μm): no effect
- negative modulation of ASIC3 mediated currents by mouse stomatin (ASIC3; CHO cells, 20 μM, 3 hours): no detectable effect
- mechanoreceptor silencing effect, reversibility [1]: completely reversible

Reference: patent publication US11384071B2, “Inhibitors of mechanotransduction to treat pain and modulate touch perception” (Max-Delbrück-Centrum für Molekulare Medizin in der …, priority 2016, dated 2022)
